Measured values taken from patent publication US10464922B2, “Metalloenzyme inhibitor compounds” (NQP 1598 LTD., priority 2015, dated 2019).
Values after ≈ are worked out from the molar mass of the structure shown.

Experiments:
C. albicans (ATCC 90028) = assay: Minimum inhibitory concentration, in vitro broth microdilution assay (CLSI M27-A2); assay type: cell-based, Candida albicans; details: ATCC 90028, about 50% growth reduction, 2 days at 36° C., range tested 8-0.0078 μg/mL, values given as ranges; for MIC: Candida albicans, ATCC90028, 48 h, read-out: Candida albicans MIC
Summary of the method: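 CLSI M27-A2 broth microdilution: 11 two-fold DMSO dilutions into RPMI-1640+MOPS with 1×10^3–1×10^4 CFU/mL, 2 percent DMSO final. Incubated 2 days at 36° C; MIC from visual growth scoring, duplicates.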

A. fumigatus = A. fumigatus MIC at 100% growth inhibition (CLSI M38-A2); assay type: cell-based, Aspergillus fumigatus; details: 100% growth inhibition, range tested 8-0.0078 μg/mL, values given as ranges; for MIC: Aspergillus fumigatus, read-out: Aspergillus fumigatus MIC
Experimental: A. fumigatus MICs were determined at 100% growth inhibition following CLSI guidelines at a concentration range of 8-0.0078 μg/mL (CLSI M38-A2).

| SMILES | Candida albicans MIC (C. albicans (ATCC 90028)) | Aspergillus fumigatus MIC (A. fumigatus) | MIC (C. albicans (ATCC 90028)) | MIC (A. fumigatus) |
| --- | --- | --- | --- | --- |
| OC(c1ccc(N2CCN(c3ccc(-c4ccc(C(F)(F)C(O)(Cn5cnnn5)c5cc(F)ccc5F)nc4)cc3)CC2)cc1)C(F)(F)F (stereo not drawn) [15(−), 2-(2,5-difluorophenyl)-1,1-difluoro-3-(1H-tetrazol-1-yl)-1-(5-(4-(4-(4-(2,2,2-trifluoro-1-hydroxyethyl)phenyl)piperazin-1-yl)phenyl)pyridin-2-yl) propan-2-ol] | 0.10 to 1.0 µg/mL | >8 µg/mL |  |  |
| CC(C)c1nc2cc(N3CCN(c4ccc(-c5ccc(C(F)(F)[C@](O)(Cn6cnnn6)c6ccc(F)cc6F)nc5)cc4)CC3)ccc2[nH]1 [Example 69, (R)-2-(2,4-difluorophenyl)-1,1-difluoro-1-(5-(4-(4-(2-isopropyl-1H-benzo [d]imidazol-5-yl)piperazin-1-yl)phenyl)pyridin-2-yl)-3-(1H-tetrazol-1-yl) propan-2-ol] |  |  | 0.01 to 0.1 µg/mL (≈ 0.0149 to 0.149 µM) | > 8 µg/mL |
| CN(C)Cc1ccc(N2CCN(c3ccc(-c4ccc(C(F)(F)[C@](O)(Cn5cnnn5)c5ccc(F)cc5F)nc4)cc3)CC2)cc1 [Example 30] |  |  | 0.0078 to 0.01 µg/mL (≈ 0.0121 to 0.0155 µM) | 0.25 to 1 µg/mL (≈ 0.387 to 1.55 µM) |
| OC(CC(F)(F)F)c1ccc(N2CCN(c3ccc(-c4ccc(C(F)(F)[C@](O)(Cn5cnnn5)c5ccc(F)cc5)nc4)cc3)CC2)cn1 (single isomer, unassigned; (+)) [121(+)] | ≤0.0078 to 0.010 µg/mL | 0.25 to 1.0 µg/mL |  |  |
| N#Cc1ccc2nc(N3CCN(c4ccc(-c5ccc(C(F)(F)[C@](O)(Cn6cnnn6)c6ccc(F)cc6F)nc5)cc4)CC3)sc2c1 [Example 73, (R)-2-(4-(4-(6-(2-(2,4-difluorophenyl)-1,1-difluoro-2-hydroxy-3-(1H-tetrazol-1-yl)propyl)pyridin-3-yl)phenyl)piperazin-1-yl) benzo [d] thiazole-6-carbonitrile] |  |  | 0.0078 to 0.01 µg/mL (≈ 0.0116 to 0.0149 µM) | > 8 µg/mL |
| OC(CC(F)(F)F)c1ncc(N2CCN(c3ccc(-c4ccc(C(F)(F)[C@](O)(Cn5cnnn5)c5ccc(F)cc5F)nc4)cc3)CC2)cn1 (stereo partly drawn) [Example 51, 1-(5-(4-(4-(6-((R)-2-(2,4-difluorophenyl)-1,1-difluoro-2-hydroxy-3-(1H-tetrazol-1-yl)propyl)pyridin-3-yl)phenyl)piperazin-1-yl)pyrimidin-2-yl)-3,3,3-trifluoropropan-1-ol] |  |  | 0.0078 to 0.01 µg/mL (≈ 0.0111 to 0.0142 µM) | 1 to 4 µg/mL (≈ 1.42 to 5.68 µM) |
| O[C@@](Cn1cnnn1)(c1ccc(F)cc1F)C(F)(F)c1ccc(-c2ccc(N3CCN(c4ccc5[nH]c(C(F)(F)F)nc5c4)CC3)cc2)cn1 [Example 35, (R)-2-(2,4-difluorophenyl)-1,1-difluoro-3-(1H-tetrazol-1-yl)-1-(5-(4-(4-(2-(trifluoromethyl)-1H-benzo [d]imidazol-5-yl)piperazin-1-yl)phenyl)pyridin-2-yl) propan-2-ol] |  |  | 0.0078 to 0.01 µg/mL (≈ 0.0112 to 0.0143 µM) | 0.25 to 1 µg/mL (≈ 0.358 to 1.43 µM) |
| N#Cc1ccc(N2CCN(c3ccc(-c4ccc(C(F)(F)[C@](O)(Cn5cnnn5)c5ccc(F)cc5F)nc4)cc3F)CC2)cc1 [Example 10, (R)-4-(4-(4-(6-(2-(2,4-difluorophenyl)-1,1-difluoro-2-hydroxy-3-(1H-tetrazol-1-yl)propyl)pyridin-3-yl)-2-fluorophenyl)piperazin-1-yl) benzonitrile] |  |  | 0.0078 to 0.01 µg/mL (≈ 0.0123 to 0.0158 µM) | > 8 µg/mL |
| OC(c1ccc(N2CCN(c3ccc(-c4ccc(C(F)(F)[C@](O)(Cn5cnnn5)c5ccc(F)cc5F)nc4)cc3)CC2)cn1)C(F)(F)F (stereo partly drawn) [Example 6, (2R)-2-(2,4-difluorophenyl)-1,1-difluoro-3-(1H-tetrazol-1-yl)-1-(5-(4-(4-(6-(2,2,2-trifluoro-1-hydroxyethyl)pyridin-3-yl)piperazin-1-yl)phenyl)pyridin-2-yl) propan-2-ol] | ≤0.0078 to 0.010 µg/mL | 0.25 to 1.0 µg/mL |  |  |
| N#Cc1ccc(N2CCN(Cc3ccc(-c4ccc(C(F)(F)[C@](O)(Cn5cnnn5)c5ccc(F)cc5F)nc4)cc3)CC2)cc1 [Example 18, (R)-4-(4-(4-(6-(2-(2,4-difluorophenyl)-1,1-difluoro-2-hydroxy-3-(1H-tetrazol-1-yl)propyl)pyridin-3-yl)benzyl)piperazin-1-yl) benzonitrile] |  |  | 0.0078 to 0.01 µg/mL (≈ 0.0124 to 0.0159 µM) | > 8 µg/mL |
| OC(CC(F)(F)F)c1ccc(N2CCN(c3ccc(-c4ccc(C(F)(F)[C@](O)(Cn5cnnn5)c5ccccc5F)nc4)cc3)CC2)cn1 (single isomer, unassigned; (-)) [122(−)] | 1.0 to 8.0 µg/mL | >8 µg/mL |  |  |
| OC(c1ccc(N2CCN(c3ccc(-c4ccc(C(F)(F)[C@](O)(Cn5cnnn5)c5ccc(F)cc5F)nc4)cc3)CC2)cc1F)C(F)(F)F (stereo partly drawn) [Example 5, (2R)-2-(2,4-difluorophenyl)-1,1-difluoro-1-(5-(4-(4-(3-fluoro-4-(2,2,2-trifluoro-1-hydroxyethyl)phenyl)piperazin-1-yl)phenyl)pyridin-2-yl)-3-(1H-tetrazol-1-yl) propan-2-ol] |  |  | 0.0078 to 0.01 µg/mL (≈ 0.0111 to 0.0142 µM) | 0.25 to 1 µg/mL (≈ 0.354 to 1.42 µM) |

Further lines, results first:

| Candida albicans MIC (C. albicans (ATCC 90028)) | Aspergillus fumigatus MIC (A. fumigatus) | MIC (C. albicans (ATCC 90028)) | MIC (A. fumigatus) | SMILES |
| --- | --- | --- | --- | --- |
| 0.10 to 1.0 µg/mL | 1.0 to 4.0 µg/mL |  |  | CC[C@@H]([C@H](C)O)n1ncn(-c2ccc(N3CCN(c4ccc(-c5ccc(C(F)(F)[C@](O)(Cn6cnnn6)c6ccc(F)cc6)nc5)cc4)CC3)cn2)c1=O [109(−), (−)-4-(5-(4-(4-(6-((R)-1,1-difluoro-2-(4-fluorophenyl)-2-hydroxy-3-(1H-tetrazol-1-yl)propyl)pyridin-3-yl)phenyl)piperazin-1-yl)pyridin-2-yl)-2-((2S,3S)-2-hydroxypentan-3-yl)-2,4-dihydro-3H-1,2,4-triazol-3-one] |
|  |  | 0.01 to 0.1 µg/mL (≈ 0.0154 to 0.154 µM) | 0.25 to 1 µg/mL (≈ 0.386 to 1.54 µM) | CCC(O)c1ccc(N2CCN(c3ccc(-c4ccc(C(F)(F)[C@](O)(Cn5cnnn5)c5ccc(F)cc5F)nc4)cc3)CC2)cc1 (stereo partly shown) [Example 39] |
|  | 0.25 to 1.0 µg/mL | 0.01 to 0.1 µg/mL (≈ 0.0132 to 0.132 µM) |  | CC[C@@H]([C@H](C)O)n1ncn(-c2ccc(N3CCN(c4ccc(-c5ccc(C(F)(F)C(O)(Cn6cncn6)c6ccc(F)cc6F)nc5)cc4)CC3)cc2)c1=O (single isomer, unassigned; (-)) [123(−)] |
|  |  | 0.01 to 0.1 µg/mL (≈ 0.0158 to 0.158 µM) | 0.25 to 1 µg/mL (≈ 0.395 to 1.58 µM) | CC(O)c1ccc(N2CCN(c3ccc(-c4ccc(C(F)(F)[C@](O)(Cn5cnnn5)c5ccc(F)cc5F)nc4)cc3)CC2)cc1 (stereo partly drawn) [Example 56, (2R)-2-(2,4-difluorophenyl)-1,1-difluoro-1-(5-(4-(4-(4-(1-hydroxyethyl)phenyl)piperazin-1-yl)phenyl)pyridin-2-yl)-3-(1H-tetrazol-1-yl) propan-2-ol] |
|  | 0.25 to 1.0 µg/mL | 0.01 to 0.1 µg/mL (≈ 0.0132 to 0.132 µM) |  | CC[C@@H]([C@H](C)O)n1ncn(-c2ccc(N3CCN(c4ccc(-c5ccc(C(F)(F)[C@](O)(Cn6cnnn6)c6ccc(F)cc6F)nc5)cc4)CC3)cn2)c1=O [Example 124, 4-(5-(4-(4-(6-((R)-2-(2,4-difluorophenyl)-1,1-difluoro-2-hydroxy-3-(1H-tetrazol-1-yl)propyl)pyridin-3-yl)phenyl)piperazin-1-yl)pyridin-2-yl)-2-((2S,3S)-2-hydroxypentan-3-yl)-2,4-dihydro-3H-1,2,4-triazol-3-one] |
|  |  | 0.0078 to 0.01 µg/mL (≈ 0.0101 to 0.0129 µM) | 0.062 to 0.25 µg/mL (≈ 0.0802 to 0.323 µM) | CC(C)C(C(C)O)n1ncn(-c2ccc(N3CCN(c4ccc(-c5ccc(C(F)(F)[C@](O)(Cn6cnnn6)c6ccc(F)cc6F)nc5)cc4)CC3)cc2)c1=O (stereo partly drawn) [Example 103, 4-(4-(4-(4-(6-((R)-2-(2,4-difluorophenyl)-1,1-difluoro-2-hydroxy-3-(1H-tetrazol-1-yl)propyl)pyridin-3-yl)phenyl)piperazin-1-yl)phenyl)-2-(2-hydroxy-4-methylpentan-3-yl)-2,4-dihydro-3H-1,2,4-triazol-3-one] |
| 0.010 to 0.10 µg/mL | 0.062 to 0.25 µg/mL |  |  | CC[C@@H]([C@H](C)O)n1ncn(-c2ccc(N3CCN(c4ccc(-c5ccc(C(F)(F)C(O)(Cn6cncn6)c6ccc(F)cc6F)nc5)cc4)CC3)cc2)c1=O (single isomer, unassigned; (+)) [123(+)] |
|  |  | 0.01 to 0.1 µg/mL (≈ 0.0139 to 0.139 µM) | 0.25 to 1 µg/mL (≈ 0.348 to 1.39 µM) | CC[C@H](NC(=O)c1ccc(N2CCN(c3ccc(-c4ccc(C(F)(F)[C@](O)(Cn5cnnn5)c5ccc(F)cc5F)nc4)cc3)CC2)cc1)[C@H](C)O [Example 57, 4-(4-(4-(6-((R)-2-(2,4-difluorophenyl)-1,1-difluoro-2-hydroxy-3-(1H-tetrazol-1-yl)propyl)pyridin-3-yl)phenyl)piperazin-1-yl)-N-((2S,3S)-2-hydroxypentan-3-yl) benzamide] |
|  |  | 0.01 to 0.1 µg/mL (≈ 0.0143 to 0.143 µM) | 0.062 to 0.25 µg/mL (≈ 0.0885 to 0.357 µM) | CCn1ncn(-c2ccc(N3CCN(c4ccc(-c5ccc(C(F)(F)[C@](O)(Cn6cnnn6)c6ccc(F)cc6F)nc5)cc4)CC3)cc2)c1=O [Example 54, (R)-4-(4-(4-(4-(6-(2-(2,4-difluorophenyl)-1,1-difluoro-2-hydroxy-3-(1H-tetrazol-1-yl)propyl)pyridin-3-yl)phenyl)piperazin-1-yl)phenyl)-2-ethyl-2,4-dihydro-3H-1,2,4-triazol-3-one] |
|  |  | 0.0078 to 0.01 µg/mL (≈ 0.0105 to 0.0135 µM) | 0.25 to 1 µg/mL (≈ 0.337 to 1.35 µM) | CC(C)(C)Cn1ncn(-c2ccc(N3CCN(c4ccc(-c5ccc(C(F)(F)[C@](O)(Cn6cnnn6)c6ccc(F)cc6F)nc5)cc4)CC3)cc2)c1=O [Example 81, (R)-4-(4-(4-(4-(6-(2-(2,4-difluorophenyl)-1,1-difluoro-2-hydroxy-3-(1H-tetrazol-1-yl)propyl)pyridin-3-yl)phenyl)piperazin-1-yl)phenyl)-2-neopentyl-2,4-dihydro-3H-1,2,4-triazol-3-one] |
|  |  | 0.0078 to 0.01 µg/mL (≈ 0.0128 to 0.0165 µM) | 0.25 to 1 µg/mL (≈ 0.411 to 1.65 µM) | O[C@@](Cn1cnnn1)(c1ccc(F)cc1F)C(F)(F)c1ccc(-c2ccc(N3CCN(c4ccc(F)cc4)CC3)cc2)cn1 [Example 2, (R)-2-(2,4-difluorophenyl)-1,1-difluoro-1-(5-(4-(4-(4-fluorophenyl)piperazin-1-yl)phenyl)pyridin-2-yl)-3-(1H-tetrazol-1-yl) propan-2-ol] |
